Measured values as given in patent publication US8541419B2, “Isotopically enriched pyrimidin-5-yl acetic acid derivatives as CRTH2 antagonists” (Actimis Pharmaceuticals, Inc., priority 2008, dated 2013).
Values joined by “and” are separate entries in the source; they are usually repeats but may differ in a detail not shown here. Equal entries are not always repeated. Marks after values point to notes of the source that are not given here. Values belong to the molecule of their own block, whether it stands above or below them.

How the values were obtained:
[1] = Pharmacokinetics and bioavailability in male Han Wistar rats after simultaneous oral administration; type: in vivo; design: AUC0-t / AUC0-∞: concentration or dose not given beside the values
Text: (§1) The pharmacokinetics and bioavailability of [4,6-bis([^2H6]dimethylamino)-2-(4-{[4-(trifluoromethyl)benzoyl]amino}benzyl)pyrimidin-5-yl]acetic acid (1) and [4,6-bisdimethylamino)-2-(4-{[4-(trifluoromethyl)benzoyl]amino}benzyl)pyrimidin-5-yl]acetic acid (“the undeuterated analog”) were compared in male Han Wistar rats after intravenous (“IV”) and oral (“PO”) administration.
(§2) The following additional acronyms and definitions are used in the study: • AUC0-∞—area under the plasma concentration time curve from time 0 to infinity • AUC0-t—area under the plasma concentration time curve from time 0 to the last quantifiable timepoint • AUMC—area under the first moment curve • CL—total plasma clearance • Cmax—maximum plasma concentration • MRT—mean residence time • PEG—polyethylene glycol • t½—elimination half-life • tmax—time of maximum plasma concentration • Vss—steady-state volume of distribution
(§3) Compound 1 (1.02 mg/kg) and the undeuterated analog (1.0 mg/kg) and were administered simultaneously as a solution in PEG 400:ethanol:water (40:10:50) both intravenously and orally (by gavage) to four male rats per dose route. The doses were equivalent on a molar basis. Blood samples were collected serially up to 48 h postdose. […] Noncompartmental pharmacokinetic parameters were calculated and the results compared statistically using paired t-tests, since the simultaneous administration of both compounds allows each rat to serve as its own control.

[2] = Pharmacokinetics in male Han Wistar rats after simultaneous intravenous administration; type: in vivo; design: AUC0-t / AUC0-∞: concentration or dose not given beside the values
Text: as §1, §2, §3

CRTH2 = biological target: T1, CRTH2 (Homo sapiens, UniProt Q9Y5Y4); experiment: Biological inhibitory activity in vitro
T1 sequence (Q9Y5Y4 1-395): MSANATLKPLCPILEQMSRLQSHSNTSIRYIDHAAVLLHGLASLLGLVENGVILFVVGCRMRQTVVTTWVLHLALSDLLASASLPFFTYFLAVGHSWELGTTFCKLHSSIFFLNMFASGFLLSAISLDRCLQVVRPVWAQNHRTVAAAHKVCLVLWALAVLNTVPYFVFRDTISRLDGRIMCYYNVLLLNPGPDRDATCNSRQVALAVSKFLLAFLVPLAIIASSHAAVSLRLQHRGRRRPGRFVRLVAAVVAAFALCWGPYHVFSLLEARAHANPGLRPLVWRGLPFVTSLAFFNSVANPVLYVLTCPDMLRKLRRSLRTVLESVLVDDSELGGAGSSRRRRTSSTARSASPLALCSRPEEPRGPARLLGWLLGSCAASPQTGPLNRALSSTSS

[3] = male, Han Wistar, rat, in vivo, po
[4] = male, Han Wistar, rat, in vivo, iv
[5] = oral, individual rats, listed as H
[6] = IV, individual rats, listed as H

- AUC0-t higher than that of the undeuterated analog [1, 3]: 71%
- AUC0-∞ higher than that of the undeuterated analog [1, 3]: 63%
- Cmax higher than that of the undeuterated analog [1, 3]: 42%
- Extrapolated area of AUC0-∞, averaged, of total area [1, 3]: < 1.5%
- tmax ([1]; male, Han Wistar, rat, in vivo, po, 1.02 mg/kg): 1 h
- MRT ([1]; male, Han Wistar, rat, in vivo, po, 1.02 mg/kg, MRT): 2.61 ± 0.708 h
- tmax ([1]; male, Han Wistar, rat, in vivo, po, 1.02 mg/kg, tmax): 0.5 h
- Bioavailability ([1]; male, Han Wistar, rat, in vivo, po, Bioavailability): 52.5%
- bioavailability relative to the unlabeled drug ([1]; rat, in vivo): better bioavailability
- AUC0-∞ higher than that of the undeuterated analog [2, 4]: 28%
- Extrapolated area of AUC0-∞, averaged, of total area [2, 4]: < 0.15%
- clearance as percent of that of the undeuterated analog [2, 4]: 80%
- clearance relative to the unlabeled drug ([2]; rat, in vivo): reduced clearance
- biological inhibitory activity in vitro compared to the undeuterated analog (CRTH2): comparable
Structure (SMILES): [2H]C([2H])([2H])N(c1nc(Cc2ccc(NC(=O)c3ccc(C(F)(F)F)cc3)cc2)nc(N(C([2H])([2H])[2H])C([2H])([2H])[2H])c1CC(=O)O)C([2H])([2H])[2H] [Compound 1, [4,6-bis([^2H6]dimethylamino)-2-(4-{[4-(trifluoromethyl)benzoyl]amino}benzyl)pyrimidin-5-yl]acetic acid]
- plasma concentrations compared with the undeuterated analog ([1]; rat, in vivo, po): greater than those of the undeuterated analog
- plasma concentrations compared with the undeuterated analog ([2]; rat, in vivo, iv): greater than those of the undeuterated analog

- Plasma Concentrations ([1]; oral, 0.25 h, mean): 992 ng/mL and 1980 nM
- Plasma Concentrations ([1]; oral, 0.5 h, mean): 1,490 ng/mL and 2960 nM
- Plasma Concentrations ([1]; oral, 1 h, mean): 1,330 ng/mL and 2660 nM
- Plasma Concentrations ([1]; oral, 2 h, mean): 601 ng/mL and 1200 nM
- Plasma Concentrations ([1]; oral, 4 h, mean): 209 ng/mL and 511 nM
- Plasma Concentrations ([1]; oral, 6 h, mean): 132 ng/mL and 262 nM
- Plasma Concentrations ([1]; oral, 8 h, mean): 81.2 ng/mL and 162 nM
- Plasma Concentrations ([1]; oral, 24 h, mean): 1.29 ng/mL and 2.57 nM
- Plasma Concentrations ([1]; oral, 48 h, mean): 0.393 ng/mL and 0.783 nM
- t1/2 ([1]; oral, harmonic mean N=4, listed as H): 2.39 ± 2.11 h and 2.39^d h
- Bioavailability [1, 5]: 10.3% and 4.06% and 50.5% and 20.6%
- Cmax [1, 5]: 2.11 µM and 0.708 µM and 6.34 µM and 3.17 µM
- MRT [1, 5]: 1.40 h and 4.25 h and 3.36 h and 3.47 h
- t1/2 [1, 5]: 1.10 h and 5.02 h and 2.57 h and 5.63 h
- tmax [1, 5]: 0.5 h (3×) and 1 h
- Cmax ([1]; oral, mean N=4): 3.08 µM
- AUC0-t ([1]; oral, mean N=4, listed as H): 8,070 ± 7,950 nM · h and 8,070 nM · h
- AUC0-∞ ([1]; oral, mean N=4, listed as H): 8,160 ± 7,880 nM · h and 8,160 nM · h
- Bioavailability ([1]; oral, mean N=4, listed as H): 21.3%
- MRT ([1]; oral, mean N=4, listed as H): 3.12 ± 1.21 h and 3.12 h
- Bioavailability ([1]; oral, mean N=4, listed as the undeuterated analog): 45.6%
- tmax ([1]; oral, median (range) N=4, listed as H): 0.5 (0.5-1.0)^e h and 0.5^a h
- Plasma Concentrations ([2]; IV, 8 h, mean): 84.4 ng/mL
- Plasma Concentrations ([2]; IV, 24 h, mean): 5.02 ng/mL
- Plasma Concentrations ([2]; IV, 48 h, individual rats): 1.01 ng/mL
- t1/2 ([2]; IV, harmonic mean N=4, listed as H): 3.23 ± 1.99 h and 3.23^b h
- MRT [2, 6]: 2.43 h and 2.20 h and 1.26 h and 0.569 h
- t1/2 [2, 6]: 6.68 h and 3.12 h and 3.60 h and 2.03 h
- CL ([2]; IV, mean N=4, listed as H): 2.17 ± 1.07 mL/min/kg and 2.17 mL/min/kg
- MRT ([2]; IV, mean N=4, listed as H): 1.62 ± 0.861 h and 1.62 h
- Vss ([2]; IV, mean N=4, listed as H): 0.186 ± 0.101 L/kg and 0.186 L/kg
Structure (SMILES): CN(C)c1nc(Cc2ccc(NC(=O)c3ccc(C(F)(F)F)cc3)cc2)nc(N(C)C)c1CC(=O)O [Undeuterated Analog, reference compound]
- Plasma Concentrations ([1]; oral, 0.25 h, individual rats): 959 ng/mL and 308 ng/mL and 1,520 ng/mL and 1,180 ng/mL and 1,910 nM and 614 nM and 3,030 nM and 2,350 nM
- Plasma Concentrations ([1]; oral, 0.5 h, individual rats): 1,060 ng/mL and 355 ng/mL and 2,940 ng/mL and 1,590 ng/mL and 2,110 nM and 708 nM and 5,860 nM and 3,170 nM
- Plasma Concentrations ([1]; oral, 1 h, individual rats): 744 ng/mL and 191 ng/mL and 3,180 ng/mL and 1,220 ng/mL and 1,480 nM and 381 nM and 6,340 nM and 2,430 nM
- Plasma Concentrations ([1]; oral, 2 h, individual rats): 463 ng/mL and 104 ng/mL and 1,290 ng/mL and 548 ng/mL and 923 nM and 207 nM and 2,570 nM and 1,090 nM
- Plasma Concentrations ([1]; oral, 4 h, individual rats): 68.4 ng/mL and 32.5 ng/mL and 559 ng/mL and 178 ng/mL and 64.8 nM and 1,120 nM and 355 nM
- Plasma Concentrations ([1]; oral, 6 h, individual rats): 22.0 ng/mL and 24.1 ng/mL and 387 ng/mL and 93.3 ng/mL and 43.9 nM and 48.1 nM and 772 nM and 186 nM
- Plasma Concentrations ([1]; oral, 8 h, individual rats): 12.3 ng/mL and 18.7 ng/mL and 217 ng/mL and 76.8 ng/mL and 24.5 nM and 37.3 nM and 433 nM and 153 nM
- Plasma Concentrations ([1]; oral, 24 h, individual rats): <1.00 ng/mL and 2.99 ng/mL and 2.16 ng/mL and <1.99 nM and 5.96 nM and 4.31 nM
- Plasma Concentrations ([1]; oral, 48 h, individual rats): <1.00 ng/mL and 1.57 ng/mL and <1.99 nM and 3.13 nM
- AUC0-t [1, 5]: 3,880 nM · h and 1,280 nM · h and 19,300 nM · h and 7,820 nM · h
- AUC0-∞ [1, 5]: 3,920 nM · h and 1,550 nM · h and 19,300 nM · h and 7,850 nM · h
- CL/F [1, 5]: 8.48 mL/min/kg and 21.5 mL/min/kg and 1.72 mL/min/kg and 4.23 mL/min/kg
- CL/F ([1]; oral, mean N=4, listed as H): 8.97^c ± 8.78^ mL/min/kg and 8.97 mL/min/kg
- Plasma Concentrations ([2]; IV, 8 h, individual rats): 64.0 ng/mL and 173 ng/mL and 88.4 ng/mL and 12.0 ng/mL
- Plasma Concentrations ([2]; IV, 24 h, individual rats): 12.0 ng/mL and 4.78 ng/mL and 3.29 ng/mL and <1.00 ng/mL
- AUC0-t [2, 6]: 14,700 nM · h and 23,300 nM · h and 24,300 nM · h and 9,020 nM · h
- AUC0-∞ [2, 6]: 14,700 nM · h and 23,300 nM · h and 24,400 nM · h and 9,090 nM · h
- CL [2, 6]: 2.25 mL/min/kg and 1.43 mL/min/kg and 1.36 mL/min/kg and 3.66 mL/min/kg
- Vss [2, 6]: 0.328 L/kg and 0.189 L/kg and 0.103 L/kg and 0.125 L/kg
